In US10259843B2, “Cyclic tetrapeptide stereoisomers” (University of Kansas, priority 2014, dated 2019):
Entries after “also recorded” stand apart in the source; their conditions may differ. Non-standard residues stand in square brackets, D forms with d. Residues, ends and D or L forms follow the SMILES beside them.

Columns and labels:
[1] = acetic acid stretching assay; assay type: in vivo; details: 10 mg/kg and 30 mg/kg
Description: The acetic acid stretching assay is a model for visceral pain and is the most popular chemical assay of nociception. In the assay, subjects are given a subcutaneous (s.c.) injection of drug or vehicle 60 min before an intraperitoneal (i.p.) injection of 0.6% acetic acid. After administration of the acetic acid, the subjects are placed in clear cages (11×7×5 in) and scored for abdominal stretches during a 20 min observation period. Stretching was defined as body contortions, belly pressing, and extension of the hind limbs from which visceral nociception was inferred. […] And while the effect of 3607 was not as pronounced as with morphine, the observed reductions in stretching were significant, indication that 3607 has a significant pain reduction effect.

formalin assay = assay type: in vivo, rodent; details: 10 mg/kg oral, vs saline i.p.
Description: It entails the injection of a dilute solution of formalin into the surface of the rodent's hindpaw, followed by the scoring of stereotypical behaviors such as flinching, licking, and biting of the affected hindpaw. The behaviors last for approximately 1 hour, with the early or acute stage (directly after injection) reflecting direct activation of nociceptors and the late or tonic phase (15 to 20 minutes after the injection) reflecting inflammation.

[2] = molecular target: kappa opioid receptor (KOR) (Homo sapiens, UniProt P41145); experiment: radioligand binding assay, kappa opioid receptor affinity; details: n in parentheses; read-out: Ki (nM ± SEM) KOR
Description: (§1) The peptides of Table 1 shown below in Tables 3 and 4 were evaluated in radioligand binding assays for mu, kappa and delta opioid receptor affinities in vitro, and in the mouse 55° C. warm water tail withdrawal assay in vivo for antinociception and opioid antagonist activity.

acute tolerance model = details: in vivo
locomotion (CLAMS) = assay type: in vivo; design: key: ✓ indicates tested (if no other comment then no significant effect); details: 10 mg/kg, p.o.
[3] = conditioned place response assay; details: oral administration of the peptides
[4] = molecular target: delta opioid receptor (DOR) (Homo sapiens, UniProt P41143); experiment: radioligand binding assay, delta opioid receptor affinity; details: n in parentheses; read-out: Ki (nM ± SEM) DOR
Description: as §1

respiratory depression = assay type: in vivo; design: key: ✓ indicates tested (if no other comment then no significant effect)
[5] = other pain models (formalin, acetic acid stretching, nerve constriction; FIGS. 1-3B); details: in vivo
Excerpt: These models are based on the formalin assay, the acetic acid stretching assay, and the nerve constriction assay. The formalin and acetic acid stretching assays are indicative of activity against inflammatory pain (i.e., nociceptive pain) and the nerve constriction assay is indicative of activity against neuropathic pain.

[6] = nerve constriction assay for neuropathic pain; assay type: in vivo, rodent; details: 3 mg/kg, 10 mg/kg, and 30 mg/kg; compared to 50 mg/kg gabapentin
Description: In the nerve constriction assay, a nerve of a subject rodent is chronically constricted or cuffed and then the animal is assessed for response to pain stimuli such a paw withdrawal. […] Gabapentin is an accepted treatment for neuropathic pain.

[7] = rotorod test for sedation and motor coordination; assay type: in vivo; design: key: ✓ indicates tested (if no other comment then no significant effect); details: 10 mg/kg, p.o.
[8] = tested on: opioid receptors (KOR, MOR, DOR); experiment: mouse 55° C. warm water tail withdrawal assay, opioid antagonist activity; assay type: in vivo; details: 30 nmol
Description: as §1

mu opioid receptor (MOR) = mu opioid receptor (MOR) (Homo sapiens, UniProt P35372); experiment: radioligand binding assay, mu opioid receptor affinity; details: n in parentheses; read-out: Ki (nM ± SEM) MOR
Description: as §1

[9] = mouse 55° C. warm water tail withdrawal assay, antinociception; assay type: in vivo
Description: as §1

delta opioid receptor (DOR), sequence (P41143 whole entry): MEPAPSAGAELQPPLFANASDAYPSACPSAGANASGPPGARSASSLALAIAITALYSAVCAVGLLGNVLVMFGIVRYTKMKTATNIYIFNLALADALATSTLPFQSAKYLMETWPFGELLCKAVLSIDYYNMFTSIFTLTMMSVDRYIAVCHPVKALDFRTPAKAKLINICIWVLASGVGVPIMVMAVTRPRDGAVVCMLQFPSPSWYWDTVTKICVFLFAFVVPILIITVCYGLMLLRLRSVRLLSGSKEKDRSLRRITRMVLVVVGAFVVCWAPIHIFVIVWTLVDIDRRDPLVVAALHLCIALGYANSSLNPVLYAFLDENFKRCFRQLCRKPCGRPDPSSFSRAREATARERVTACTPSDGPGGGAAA
kappa opioid receptor (KOR), sequence (P41145 whole entry): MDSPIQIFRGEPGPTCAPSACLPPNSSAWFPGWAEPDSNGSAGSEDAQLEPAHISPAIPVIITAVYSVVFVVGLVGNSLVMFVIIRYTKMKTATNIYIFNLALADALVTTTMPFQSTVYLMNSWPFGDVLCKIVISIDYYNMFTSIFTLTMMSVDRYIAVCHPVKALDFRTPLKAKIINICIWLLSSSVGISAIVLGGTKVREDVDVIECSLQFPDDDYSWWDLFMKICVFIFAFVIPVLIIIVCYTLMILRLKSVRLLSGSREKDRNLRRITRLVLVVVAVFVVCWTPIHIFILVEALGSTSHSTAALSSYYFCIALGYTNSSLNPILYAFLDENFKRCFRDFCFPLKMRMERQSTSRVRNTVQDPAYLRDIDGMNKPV
mu opioid receptor (MOR), sequence (P35372 whole entry): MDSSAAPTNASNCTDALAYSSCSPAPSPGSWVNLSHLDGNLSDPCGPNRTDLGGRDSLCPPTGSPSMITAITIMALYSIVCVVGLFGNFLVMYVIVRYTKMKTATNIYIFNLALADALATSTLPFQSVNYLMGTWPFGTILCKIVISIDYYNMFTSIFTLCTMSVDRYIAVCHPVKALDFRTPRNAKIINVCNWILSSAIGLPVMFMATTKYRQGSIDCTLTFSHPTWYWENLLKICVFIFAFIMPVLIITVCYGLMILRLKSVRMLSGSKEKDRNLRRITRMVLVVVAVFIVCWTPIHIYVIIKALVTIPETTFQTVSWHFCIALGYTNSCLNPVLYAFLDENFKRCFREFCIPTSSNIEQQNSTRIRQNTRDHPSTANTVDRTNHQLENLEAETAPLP

O=C1N[C@H](Cc2ccccc2)C(=O)N2CCC[C@@H]2C(=O)N[C@H](Cc2ccccc2)C(=O)N[C@H]1Cc1c[nH]c2ccccc12 [JVA 3607, cyclo-[D-Phe-D-Pro-D-Phe-Trp]] (cyclo([dF][dP][dF]W))
antinociception (abdominal stretches) [1]: significant antinociception | time spent licking after formalin administration (formalin assay): significant reduction | Ki [2]: 2560 ± 480 nM | Acute Tolerance ED50 shift (acute tolerance model): 5.19 fold | Locomotion (CLAMS, 10 mg/kg, p.o.) (locomotion (CLAMS)): ✓ | conditioned place preference (drug seeking behavior) or conditioned place aversion [3]: no evidence of inducing drug seeking behavior; also recorded: do not show evidence of conditioned place preference (drug seeking behavior) or conditioned place aversion | Ki [4]: > 10000 nM | Respiratory depression 10 mg/kg p.o. (respiratory depression): ✓ | analgesic activity in other pain models [5]: significant analgesic properties; also recorded: show activity against pain | relief of neuropathic pain [6]: significant relief of neuropathic pain | Rotorod (10 mg/kg, p.o.) [7]: ✓ | Antagonism (dose, nmol) [8]: None (30) | Ki (mu opioid receptor (MOR)): 7780 ± 410 nM | ED50 (95% CI) i.c.v. ([9]; antinociception, i.c.v.): 1.00 nmol | ED50 (95% CI) p.o. ([9]; antinociception, p.o.): 4.12 mg/kg | Receptors involved ([9]; opioid receptors contributing to antinociception): mu opioid receptors (MOR) are not involved; also recorded: KOR, DOR
